Key:
NCI-H716 cells = assay: GLP-1 secretion in NCI-H716 cells, in vitro human L cells model (Examples 30-33); assay type: cell-based; conditions: for Emax: Homo sapiens, NCI-H716, 2 h; for GLP-1 biosynthesis and secretion from NCI-H716 L cells / level of GLP-1 biosynthesis and secretion compared with oleoyl-LPI: 20 μM, 2 hours; for GLP-1 biosynthesis and secretion from NCI-H716 L cells: normalized against DMSO vehicle control; for activity in inducing and/or increasing secretion of GLP-1 from cells of the GI tract: summary statement, compared with oleoyl-LPI
Protocol: To evaluate the GLP-1 biosynthesis and secreting capabilities of the compounds of formula I in vitro using the human-derived cell line NCI-H716, 50,000 such cells were seeded per well of a 24-well plate pre-coated with a thin layer of Matrigel (0.15 mg/ml) in RPMI complete (RPMI additioned with FBS 10%, Glucose 2 g/L, Glutamine 4 mM, Sodium Bicarbonate 2 g/L, Pen/Strep 1× pH 7.4 at 37° C.) and incubated at 37° C. in humidified 5% CO2 atmosphere to induce endocrine differentiation.
After 48 hours, media was withdrawn and cells washed once with warm HBSS (Hank's balanced salt solution) and then incubated in duplicate for 2 hours with the different dilutions of the oleoyl-LPI, OEA, DMSO (as negative control), a test compound of formula I, and KR-62436 10 μg/ml, all dissolved in RPMI serum free (RPMI complete without FBS) at 37° C. in humidified 5% CO2 incubator. Supernatant were quickly collected on ice and stored at −80° C. before quantification of GLP-1 with a commercial ELISA (EMD Millipore) specific for active-GLP-1 species.
To evaluate the GLP-1 biosynthesis and secreting capabilities of the compounds of formula I in vitro using the human-derived cell line NCI-H716, 50,000 such cells were seeded per well of a 24-well plate pre-coated with a thin layer of Matrigel (0.15 mg/ml) in RPMI complete (RPMI additioned with FBS 10%, Glucose 2 g/L, Glutamine 4 mM, Sodium Bicarbonate 2 g/L, Pen/Strep 1×pH 7.4 at 37° C.) and incubated at 37° C. in humidified 5% CO2 atmosphere to induce endocrine differentiation.
After 48 hours, media was withdrawn and cells washed twice with pre-warm HBSS (Hank's balanced salt solution) and then incubated in duplicate for 2 hours with 250 μl of 20 μM of either oleoyl-LPI, DMSO (as negative control) or a test compound of formula I, and […], all dissolved in RPMI serum free (RPMI complete without FBS) at 37° C. in humidified 5% CO2 incubator. Compounds of formula I tested were ps297b, ps316a, ps318a, ps319a, ps321a and ps323.
Supernatant were quickly collected on ice and stored at −80° C. before quantification of GLP-1 with a commercial ELISA (EMD Millipore) specific for active-GLP-1 species (e.g., GLP-1 (7-36) amide) and […]).
Compounds of formula I were tested for GLP-1 secretion in NCI-H716 cells essentially as describe in examples 30 and 31 above. EC50 GLP-1 secretion readout results were standardized relative to maximum GLP-1 secretion obtained with oleoyl-LPI. EC50 readout results were rated as low GLP-1 secretion activity (0-20% of maximum GLP-1 secretion achieved with oleoyl-LPI), moderate (21-79% of maximum GLP-1 secretion achieved with oleoyl-LPI), and high GLP-1 activity (80% and more of maximum GLP-1 secretion achieved with oleoyl-LPI). Table 3 also outlines the R1, R2 and R3 substituents of the compounds of formula I.

Glutag cells = assay: GLP-1 secretion by Glutag cells; assay type: cell-based, murine; conditions: Glutag cells
Protocol: Glutag cells were maintained in low glucose DMEM (Sigma) (1 g/L) containing 2.0 mM L-glutamine, 1.0 mM sodium pyruvate and supplemented with 10% FBS, 100 IU/ml penicillin, 100 μg/ml streptomycin at a 37° C. and 5% CO2.
Approximately 80,000 Glutag cells were plated in poly-L-lysine-coated 24-well culture plates and grown to about 80% confluence. NCI-H716 cells were seeded on growth factor reduced Matrigel™ (Becton Dickinson, Bedford, MA) in DMEM medium, supplemented with 10% FBS the day before the experiment. For NCI-H716 cells, approximately 25,000 cells were needed for this secretion experiment in order to have good stimulation with lower basal GLP-1 secretion. In brief, Glutag and NCI-H716 cells were washed twice and then incubated for 2 h with FBS-free DMEM containing 1% (M:C) alone (negative control), 10 μM forskolin as positive control (Sigma-Aldrich), or with different concentrations of Oleoyl-LPI. M:C was used as a solvent to prepare stock solutions of fatty acid derivatives and inhibitors. For secretion experiments, medium and cells were collected separately.
In separate studies, GLUTag or NCI-H716 cells were pre-treated for 1 hour with medium alone (1% DMSO, negative control), PD98059 (50 μM; Sigma Chemical Co.), H89 (10 μM; Santa Cruz) followed by treatment with oleoyl-LPI (20 μM), OEA (10 μM), AR231453(1 μM), PMA (10 μM) or forskolin (10 μM, positive control) in the presence of inhibitors, as appropriate, for about 2 h. Medium GLP-1 secretion was calculated as total GLP-1 content of medium normalised for the basal secretion of the control.
In order to investigate the role of different LPI species in enteroendocrine cells, murine (Glutag) and human (NCI-H716) L-cells were stimulated with the following different species of LPI: Arachidonyl-LPI, Stearoyl-LPI, Heptadecenoyl-LPI and oleoyl-LPI, as well as with OEA and LPC. Experiments were performed in duplicate, n=4 and the level of total GLP-1 was measured by ELISA.

[1] = tested on: colonic cells of the GI tract obtained from guinea pig; assay: Ex vivo GLP-1 biosynthesis and secretion, guinea pig GI tract cells; assay type: cell-based
Protocol: To test for this, a pregnant guinea pig was anesthetized with isoflurane and sacrificed via intra-cardial injection of pentobarbital. Colon and rectum were quickly collected and intraluminal content washed out with ice-cold HBSS. After a thorough cleansing from the faecal material, and gentle scraping of the internal mucosa, the tissue was minced into 3 to 5-millimetre pieces and resuspended into 50 ml of ice cold HBSS. Pellet was spun down and washed again in 50 ml of ice-cold HBSS. Supernatant was carefully removed, and the epithelial fragments were then resuspended for 30 minutes at 37° C. into a 5 ml solution of HEPES 25 mM, collagenase-P 1 mg/ml in HBSS, pH 7.4 at 37° C.
The tissue was then pelleted and resuspended further for about 30 to 40 additional minutes at 37° C. within a 10 ml solution of 1 mg/ml collagenase-P as above.
After the digestion, about 40 ml of pre-warmed DMEM complete media was added (FBS 10%, glucose 4.5 g/L, glutamine 4 mM, sodium pyruvate 1 mM, HEPES 25 mM, sodium bicarbonate 3.7 g/L, Pen/Strep 1× and Ciprofloxacin 10 μg/ml pH 7.4 at 37° C.). Crypts and individual cells were isolated with a […] nylon strainer, spun down at 200 g for 5 minutes, resuspended into 10 ml of DMEM complete media and plated into 20 wells of a 24-well plate coated with a 3D gel of 3 mg/ml Matrigel (BD, Biosciences, Oxford, UK). After one day of incubation at 37° C. 5% CO2 in a humidified incubator, cells were washed with 500 μl of warm HBSS, and treated with 250 μl DMEM serum free (Complete medium without FBS) additioned with KR-62436 10 μg/ml and individually the following drugs or compounds: Forskolin and IBMX (20 μM each), oleoyl-LPI, and the two oleoyl-LPI analogs and/or derivatives ps297b (prepared as described in example 13) and ps316a (prepared as described in example 22) were all tested in quadruplicate at 20 μM.
After a 2-hour long incubation at 37 C 5% CO2, the supernatants were collected on ice, and quickly stored at […]. Active GLP-1 levels (7-37 amide and 7-36) were quantified on 50 μl of supernatant with an ELISA commercial kit (EMD Millipore). DMSO was used as a negative control, the combination of Forskolin and IBMX was included as positive control activators GLP-1. GLP-1 levels measured were standardized against the DMSO control.
The EC50 levels each one of oleoyl-LPI, compound ps297b and compound ps316a were also measured in quadruplicates at the conclusion of the 2 hour incubation. Guinea pig cells obtained as described above were also incubated with […] in quadruplicates and subjected to 2-hour long incubation at 37 C 5% CO2 as described above and EC50 levels measured.

[2] = NCI-H716 cells, standardized relative to maximum GLP-1 secretion obtained with oleoyl-LPI

| SMILES | Emax (NCI-H716 cells; [2]) [%] | further results |
| --- | --- | --- |
| CCCCCCCC/C=C\CCCCCCCC(=O)Nc1ccc(-c2nnn[nH]2)c(F)c1 [ps312a] | 21 to 79 | – |
| CCCCCCCC/C=C\CCCCCCCC(=O)Nc1cccc(-c2nnn[nH]2)c1 [ps318a] | > 80 | GLP-1 biosynthesis and secretion from NCI-H716 L cells (NCI-H716 cells): able to mediate GLP-1 biosynthesis and secretion; level of GLP-1 biosynthesis and secretion compared with oleoyl-LPI (NCI-H716 cells; NCI-H716 cells): higher than those achieved from oleoyl-LPI; activity in inducing and/or increasing secretion of GLP-1 from cells of the GI tract (NCI-H716 cells): equal to or higher than oleoyl-LPI |
| CCCCC/C=C\C/C=C\CCCCCCCC(=O)Nc1ccc(C#N)cc1 [ps314b] | 0 to 20 | – |
| CCCCCCCC/C=C\CCCCCCCC(=O)Nc1ccc(C(=O)O)cc1 [ps294a] | 0 to 20 | – |
| CCCCCCCCCCCCCCCC(=O)Nc1ccc(-c2nnn[nH]2)cc1 [ps320c] | 0 to 20 | – |
| CCCCCCCC/C=C\CCCCCCCC(=O)Nc1ccc(-c2nnn(C)n2)cc1 [ps298a] | 0 to 20 | – |
| CCCCC/C=C\C/C=C\C/C=C\C/C=C\CCCC(=O)NCc1ccc(O)c(OC)c1 [Arvanil, N-arachidonoyl-vanillyl-amide] | – | antagonist activity for GPR119 (inventors' conclusion) (Glutag cells): weak antagonist for GPR119; GLP-1 secretion, combination treatment (Glutag cells; Arvanil together with AR-231,453): significantly reduced GLP-1 secretion; GLP-1 secretion, combination treatment (Glutag cells; Arvanil with either OEA or LPI): significantly enhanced GLP-1 secretion |
| CCCCCCCC/C=C\CCCCCCCC(=O)Nc1ccc(OC)cc1 [ps301a] | 0 to 20 | – |
| CCCCCCCCCCCCCCCC(=O)Nc1ccc(C#N)cc1 [ps317b] | 0 to 20 | – |
| CCCCCCCC/C=C\CCCCCCCC(=O)Nc1cccc(C#N)c1 [ps315a] | 0 to 20 | – |
| CCCCC/C=C\C/C=C\CCCCCCCC(=O)Nc1ccc(-c2nnn[nH]2)cc1F [ps323b] | 0 to 20 | GLP-1 biosynthesis and secretion from NCI-H716 L cells (NCI-H716 cells): able to mediate GLP-1 biosynthesis and secretion |
| CCCCCCCC/C=C\CCCCCCCC(=O)Nc1ccc(-c2nnn[nH]2)cc1F [ps309a] | > 80 | activity in inducing and/or increasing secretion of GLP-1 from cells of the GI tract (NCI-H716 cells): equal to or higher than oleoyl-LPI |
| CCCCCCCC/C=C\CCCCCCCC(=O)Nc1ccc(C#N)cc1F [ps306a] | 0 to 20 | – |
| CCCCC/C=C\C/C=C\CCCCCCCC(=O)Nc1ccc(-c2nnn[nH]2)cc1 [ps316a] | > 80 | GLP-1 levels compared with oleoyl-LPI ([1]; 20 μM, 2 hours): above those observed for the endogenous GRP119 ligand, oleoyl-LPI; GLP-1 biosynthesis and secretion ex vivo ([1]; 20 μM, 2 hours, standardized against DMSO control): stimulated biosynthesis and secretion; stability after incubation ex vivo ([1]; 2 hours incubation ex vivo): remained stable after 2 hours incubation ex vivo; EC50 ([1]; Cavia porcellus, ex vivo incubation 2 hours, quadruplicates): 22.4 µM; GLP-1 biosynthesis and secretion from NCI-H716 L cells (NCI-H716 cells): able to mediate GLP-1 biosynthesis and secretion; level of GLP-1 biosynthesis and secretion compared with oleoyl-LPI (NCI-H716 cells; NCI-H716 cells): higher than those achieved from oleoyl-LPI; activity in inducing and/or increasing secretion of GLP-1 from cells of the GI tract (NCI-H716 cells): equal to or higher than oleoyl-LPI |
| CCCCCCCC/C=C\CCCCCCCC(=O)Nc1ccc(O)cc1 [ps300b] | 0 to 20 | – |
| CCCCCCCC/C=C\CCCCCCCC(=O)Nc1ccc(C#N)cc1 [ps292a] | 0 to 20 | – |
| CCCCC/C=C\C/C=C\CCCCCCCC(=O)Nc1ccc(C#N)cc1F [ps319] | 0 to 20 | GLP-1 biosynthesis and secretion from NCI-H716 L cells (NCI-H716 cells): able to mediate GLP-1 biosynthesis and secretion |
| CC(C)c1noc(C2CCN(c3ncnc(Nc4ccc(S(C)(=O)=O)cc4F)c3[N+](=O)[O-])CC2)n1 [AR-231,453] | – | GLP-1 secretion (Glutag cells; two hours treatment, compound alone): significantly increases GLP-1 secretion |
| CCCCCCCC/C=C\CCCCCCCC(=O)Nc1ccc(C(=O)OC)cc1 [ps293a] | 0 to 20 | – |
| CCCCCCCC/C=C\CCCCCCCC(=O)Nc1ccc(C#N)c(F)c1 [ps308c] | 0 to 20 | – |
| CCCCCCCC/C=C\CCCCCCCC(=O)Nc1ccc(-c2nnn[nH]2)cc1.[Na+] [ps321a] | – | GLP-1 biosynthesis and secretion from NCI-H716 L cells (NCI-H716 cells): able to mediate GLP-1 biosynthesis and secretion; GLP-1 secretion Activity relative to oleoyl-LPI (NCI-H716 cells; [2]): Low (low GLP-1 secretion activity (0-20% of maximum GLP-1 secretion achieved with oleoyl-LPI)) |
| CCCCCCCC/C=C\CCCCCCCC(=O)Nc1ccc(-c2nnnn2C)cc1 [ps298b] | 0 to 20 | – |
